Results on one compound are retold here after patent publication US11759492B2, “Extract from a plant of the genus Boswellia and related products and uses” (Alpinia Laudanum Institute of Phytopharmaceutical Sciences …, priority 2014, dated 2023).

In the test the test system is HepG2 cells. Description: Determination of reactive oxygen species (ROS) in HepG2 indicator cells (ROS-Glo system). It is filed as cell-based. The settings on record: two hours or four hours of incubation, FIG. 4 and 5. As for the experimental part: The potential of Boswellia extract BSR037: LN00125 (Example 12) and Boswellia extract BSR037: LN00126 (Example 15) of inducing reactive oxygen species (ROS) was tested. The effects were compared with ROS generation upon exposure to positive control Menadione as well as two solvent ethanol. To this end, HepG2 cells were incubated in presence of different concentrations of the respective Boswellia extract for two hours. ROS levels were determined by using the ROS-Glo system (Promega). HepG2 cells were seeded in […] flat-bottom black microtiter plates at a density of 10000 cells per well, 100 μl per well, and allowed to attach to the plate for 24 hours. Test item dilutions were prepared in separate plates. The maximum concentration was a 1:100 dilution in media (final solvent concentration: 1% ethanol) followed by a 1:3 serial dilution in media containing 1% ethanol. […] Cells exposed to media containing 1% ethanol served as untreated control. After overnight adherence, media was completely removed from cells by vacuum aspiration and 80 μl of compound dilution, positive and negative controls were added to the cells. Test items were tested in two replicates per concentration (A and B). In independent experiments, ROS levels were measured after two hours of incubation (see FIG. 4A-D) or after four hours of incubation (see FIG. 5A-D), respectively).

For `CC1=CC(=O)c2ccccc2C1=O` [Menadione], the ROS induction result is reported as “ROS induction was detected”.
